SMILES strings stand for the structures. Where only a bound is given, the exact number is not on record here.

The experiment has as its target PIK3CG (human) (UniProt P48736). As to the kind of experiment: Inhibition of PIK3CG Kinase Activity.

PIK3CG (human), sequence (P48736 whole entry, looked up): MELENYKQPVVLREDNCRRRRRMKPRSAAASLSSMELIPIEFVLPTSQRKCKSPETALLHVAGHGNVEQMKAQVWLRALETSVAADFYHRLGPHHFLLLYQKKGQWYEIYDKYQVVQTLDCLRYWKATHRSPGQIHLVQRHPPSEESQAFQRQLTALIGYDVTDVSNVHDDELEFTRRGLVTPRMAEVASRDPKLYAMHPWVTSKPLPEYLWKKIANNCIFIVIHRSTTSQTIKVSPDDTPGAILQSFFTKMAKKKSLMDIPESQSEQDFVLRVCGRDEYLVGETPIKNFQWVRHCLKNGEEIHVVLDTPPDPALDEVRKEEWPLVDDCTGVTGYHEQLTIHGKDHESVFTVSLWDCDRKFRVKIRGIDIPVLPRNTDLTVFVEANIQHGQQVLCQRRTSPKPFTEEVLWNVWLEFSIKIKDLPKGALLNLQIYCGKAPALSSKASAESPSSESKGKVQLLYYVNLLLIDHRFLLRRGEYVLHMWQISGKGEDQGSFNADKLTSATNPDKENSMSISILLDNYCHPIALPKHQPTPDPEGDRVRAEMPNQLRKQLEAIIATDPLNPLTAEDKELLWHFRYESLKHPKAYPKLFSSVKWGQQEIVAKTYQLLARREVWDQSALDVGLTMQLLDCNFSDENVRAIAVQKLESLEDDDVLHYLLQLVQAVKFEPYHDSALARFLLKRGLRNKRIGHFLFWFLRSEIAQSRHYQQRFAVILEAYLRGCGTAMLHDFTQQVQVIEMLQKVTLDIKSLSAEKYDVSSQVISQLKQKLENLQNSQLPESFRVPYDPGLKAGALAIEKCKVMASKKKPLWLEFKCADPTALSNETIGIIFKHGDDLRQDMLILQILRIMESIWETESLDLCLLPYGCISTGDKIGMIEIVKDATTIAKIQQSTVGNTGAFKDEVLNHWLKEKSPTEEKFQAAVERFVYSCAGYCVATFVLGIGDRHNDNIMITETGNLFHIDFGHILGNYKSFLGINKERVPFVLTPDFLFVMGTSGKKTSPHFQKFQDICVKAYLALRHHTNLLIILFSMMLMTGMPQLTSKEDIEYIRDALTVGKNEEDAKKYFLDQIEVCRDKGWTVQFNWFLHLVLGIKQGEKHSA

For orientation: Ki means a measure of affinity in units of concentration, obtained from inhibition or displacement. With `COc1ncc(-c2cc(C)c3c(n2)CN(c2cnn(CC(F)(F)F)c2)C3=O)cc1OC(C)C`, the Ki was under 100 nM.

As to `CCn1ccnc1Cn1cc(N2Cc3nc(-c4cnc(OC)c(OC)c4)ccc3C2=O)cn1`, the inhibition constant (Ki) is under 100 nM.

`COc1ncc(-c2cc(C)c3c(n2)CN(c2cnn(CC(F)(F)F)c2)C3=O)cc1Cl` had a Ki of under 100 nM.

In turn, `CCn1cc(N2Cc3nc(-c4cnc(OC)c(OC)c4)ccc3C2=O)nn1` registered an inhibition constant (Ki) of under 100 nM.

Consider `COc1cc(-c2ccc3c(n2)CN(c2ccc(N4CCC(CO)C4)nc2)C3=O)cnc1OC` (stereo unspecified), for which the Ki was 100 to 490 nM.

For `COc1cc(-c2cc(C)c3c(n2)C(OC(C)=O)N(c2cnn(CC(F)(F)F)c2)C3=O)cnc1OC` (stereo unspecified), the Ki was under 100 nM.

Compound `COc1cc(-c2cc(C)c3c(n2)CN(c2cnc(C(C)(C)O)c(F)c2)C3=O)cnc1OC` showed a Ki of under 100 nM.

The compound `C=C1c2nc(-c3cnc(OC)c(OC)c3)ccc2C(=O)N1c1cnn(CC#N)c1` gave a Ki of under 100 nM.

As for `COc1cc(-c2ccc3c(n2)[C@@H](C)N(c2ccn(C[C@H](C)O)n2)C3=O)cnc1OC`, the inhibitory constant (Ki) is under 100 nM.

Take `CCOCCOc1ncc(-c2cc(C)c3c(n2)CN(c2cnn(CC(F)(F)F)c2)C3=O)cc1OC`: the inhibition constant (Ki) is 100 to 490 nM.

In turn, `CCc1cc(N2Cc3nc(-c4cncc(OC(F)F)c4)ccc3C2=O)nn1C[C@H](C)O` displayed a Ki of 100 to 490 nM.

In turn, `COc1cc(-c2ccc3c(n2)CN(c2cncc(C(C)(C)O)c2)C3=O)cnc1OC` registered an inhibition constant Ki of under 100 nM.

Regarding `COc1cc(OC)c(-c2cc(C)c3c(n2)C(C)N(c2cnn(CC(F)(F)F)c2)C3=O)cn1` (stereo unspecified), the inhibition constant (Ki) is under 100 nM.

`COc1cc(-c2cc(C)c3c(n2)CN(c2ccn([C@H]4CCOC4)n2)C3=O)cnc1F` came in with an inhibitory constant (Ki) of under 100 nM.

The compound `Cc1cc(-c2cccc(OC(F)(F)F)c2)nc2c1C(=O)N(c1cnn(CC(F)(F)F)c1)C2` yielded a Ki of under 100 nM.

As for `COc1cncc(-c2cc(C)c3c(n2)C(C)N(c2csc(C)n2)C3=O)c1` (stereo unspecified), the Ki is under 100 nM.

With `Cc1cc(-c2cnc(C)c(C(=O)O)c2)nc2c1C(=O)N(c1cnn(CC(F)(F)F)c1)C2(C)C`, the Ki was under 100 nM.

In turn, `CCn1ccc(N2C(=O)c3c(C)cc(-c4cncc(OC)c4)nc3C2(C)C)n1` came in with a Ki of 100 to 490 nM.

For the compound `COCCO[C@H]1c2nc(-c3cnc(OC)c(OC)c3)ccc2C(=O)N1c1cnn(CC(F)(F)F)c1`, the Ki lay in the range of 100 to 490 nM.

As to `COc1cc(-c2ccc3c(n2)CN(c2cnn(C4CCOCC4)c2)C3=O)cnc1OC`, the inhibition constant Ki was under 100 nM.

In turn, `Cc1cc(-c2cncc(O)c2)nc2c1C(=O)N(c1cnn(CC(F)(F)F)c1)C2` yielded a Ki of under 100 nM.

The compound `CCc1cc(N2Cc3nc(-c4cnc(OC)c(OC)c4)cc(C)c3C2=O)nn1CC(F)(F)F` came in with a Ki of under 100 nM.

Compound `COc1cc(-c2ccc3c(n2)CN(c2ccc(N4CC[C@@H](F)C4)nc2)C3=O)cnc1OC` registered a Ki of 100 to 490 nM.

Consider `COc1cc(-c2ccc3c(n2)C(C)(C)N(c2cn[nH]c2)C3=O)cnc1OC`, for which the inhibition constant (Ki) was under 100 nM.

Compound `COCCNC(=O)c1cc(-c2cc(C)c3c(n2)C(C)(C)N(c2cnn(CC(F)(F)F)c2)C3=O)cnc1OC` came in with a Ki of under 100 nM.

In the case of `CCOc1cncc(-c2cc(C)c3c(n2)[C@@]2(CCOC2)N(c2cnn(CC(F)(F)F)c2)C3=O)c1`, the Ki is under 100 nM.

The compound `COc1csc(-c2cc(C)c3c(n2)CN(c2cnn(CC(F)(F)F)c2)C3=O)c1` gave a Ki of under 100 nM.

In turn, `COc1cc(-c2cc(C)c3c(n2)CN(c2ccn(C(C)(C)C#N)n2)C3=O)cnc1OC` displayed a Ki of under 100 nM.

As for `Cc1cc(-c2cncc(OC(F)F)c2)nc2c1C(=O)N(c1cn[nH]c1)[C@H]2C`, the Ki was under 100 nM.

For `COc1cc(-c2cc(C)c3c(n2)CN(c2csc(C)c2)C3=O)cnc1OC`, the inhibitory constant (Ki) was under 100 nM.

Regarding `CCn1cc(N2Cc3nc(-c4cncc(OC)c4)cc(C)c3C2=O)cn1`, the inhibitory constant (Ki) was under 100 nM.

Consider `CCCOCCOc1ncc(-c2cc(C)c3c(n2)CN(c2cnn(CC(F)(F)F)c2)C3=O)cc1OC`, for which the inhibitory constant (Ki) was in the range of 100 to 490 nM.

Regarding `COc1cncc(N2Cc3nc(-c4cnc(OC)c(OC)c4)ccc3C2=O)c1`, the Ki was under 100 nM.

In turn, `COc1cc(-c2ccc3c(n2)CN(c2cccs2)C3=O)cnc1OC` gave a Ki of under 100 nM.

In turn, `COc1cncc(-c2cc(C)c3c(n2)[C@H](C)N(c2cn[nH]c2)C3=O)c1` gave an inhibition constant Ki of under 100 nM.

In turn, `Cc1cc(-c2cncc(OCC(F)F)c2)nc2c1C(=O)N(c1ccn([C@H]3CCOC3)n1)C2` showed a Ki of under 100 nM.

`COc1ncc(-c2ccc3c(n2)C(C)N(c2cnn(CC(F)(F)F)c2)C3=O)cc1O` (stereo unspecified) came in with an inhibitory constant (Ki) of under 100 nM.

Take `CCOc1cncc(-c2cc(C)c3c(n2)C(C)(C)N(c2cnn(CC#N)c2)C3=O)c1`: the Ki was under 100 nM.

As to `COc1ncc(-c2cc(C)c3c(n2)C(C)N(c2cnn(CC(F)(F)F)c2)C3=O)cc1C(=O)NC(C)C` (stereo unspecified), the Ki is under 100 nM.

As to `Cc1cc(-c2cncc(N)c2)nc2c1C(=O)N(c1cnn(CC(F)(F)F)c1)C2(C)C`, the Ki was under 100 nM.

In turn, `COc1cc(-c2ccc3c(c2)CN(c2cccc(CC#N)c2)C3=O)cnc1OC` registered a Ki of under 100 nM.

In turn, `Cc1cc(-c2cncc(OCC(F)(F)F)c2)nc2c1C(=O)N(c1cnn(CC(F)F)c1)C2(C)C` returned a Ki of under 100 nM.

Compound `CCOc1cncc(-c2cc(C)c3c(n2)[C@@](C)(OC)N(c2cnn(CC(F)(F)F)c2)C3=O)c1` displayed a Ki of under 100 nM.

In turn, `Cc1cc(-c2cncc(OCC(F)F)c2)nc2c1C(=O)N(c1cnn(CC(F)(F)F)c1)C2(C)C` had an inhibitory constant (Ki) of under 100 nM.

In turn, `CCOc1cc(-c2ccc3c(c2)CN(c2cnn(CC)c2)C3=O)cnc1OC` displayed a Ki of 100 to 490 nM.

Take `CCn1cc(N2Cc3nc(-c4cncc(OC(F)F)c4)cc(C)c3C2=O)cn1`: the Ki was under 100 nM.

As for `COCCCn1cc(N2Cc3cc(-c4cnc(OC)c(OC)c4)ccc3C2=O)cn1`, the inhibition constant Ki fell in the range of 100 to 490 nM.

In turn, `COc1cc(-c2ccc3c(c2)CN(c2cnn(CC#N)c2)C3=O)cnc1Cl` came in with an inhibitory constant (Ki) of 100 to 490 nM.

As to `CCc1cc(-c2cnc(OC)c(OC)c2)nc2c1C(=O)N(c1cnn(CC(F)(F)F)c1)C2(C)C`, the inhibition constant Ki was under 100 nM.

The compound `CCn1cc(N2C(=O)c3ccc(-c4cnc(OC)c(OC)c4)nc3[C@H]2C)cn1` had an inhibition constant Ki of under 100 nM.

Consider `COc1cc(-c2cc(C)c3c(n2)C(O)N(c2cnn(CC(F)(F)F)c2)C3=O)cnc1OC` (stereo unspecified), for which the inhibition constant Ki was under 100 nM.

In turn, `COc1cc(-c2ccc3c(n2)CN(c2ccc(N4CCC(N(C)C)C4)nc2)C3=O)cnc1OC` (stereo unspecified) showed an inhibitory constant (Ki) of under 100 nM.

`COc1cc(-c2cc(C)c3c(n2)CN(c2cnn(C4CC4)c2)C3=O)cnc1OC` returned an inhibition constant (Ki) of under 100 nM.

On to `Cc1cc(-c2cncc(S(C)(=O)=O)c2)nc2c1C(=O)N(c1cnn(CC(F)(F)F)c1)C2C` (stereo unspecified), for which the Ki is under 100 nM.

In the case of `CCOc1ncc(-c2cc(C)c3c(n2)C(CC)N(c2cnn(CC(F)(F)F)c2)C3=O)cc1OC` (stereo unspecified), the Ki was under 100 nM.

In turn, `COc1cc(-c2ccc3c(n2)CN(c2cnn(CCO)c2)C3=O)cnc1OC` had a Ki of under 100 nM.

Turning to `COc1cc(-c2ccc3c(n2)CN(c2cccc(CC#N)c2)C3=O)cnc1OC`, the inhibition constant Ki is under 100 nM.

As to `COc1cc(-c2ccc3c(n2)CN(c2ccc(N4CCOCC4)nc2)C3=O)cnc1OC`, the Ki was in the range of 100 to 490 nM.

`CO[C@@H]1c2nc(-c3cncc(OCC(F)F)c3)cc(C)c2C(=O)N1c1cnn(CC(F)(F)F)c1`: the inhibition constant Ki was under 100 nM.

`COCCn1ccc(N2Cc3nc(-c4cnc(OC)c(OC)c4)ccc3C2=O)n1` returned a Ki of 100 to 490 nM.

Take `COCCOc1ncc(-c2ccc3c(n2)CN(c2cnn(CC#N)c2)C3=O)cc1OC`: the Ki is under 100 nM.

These data come from the Kinase Knowledgebase extract (Sharma et al. 2016).
